Test results as given in patent US20230095907A1, “STIMULATION OF NEURONAL PLASTICITY” (Institute of Science and Technology Austria, priority 2019, published 2023).

Assays:
[1] = target: purinergic receptor P2Y12 (Mus musculus, UniProt Q9CPV9); conditions: 3×, S1
Procedure: Clopidogrel: Clopidogrel (Tocris 2490) was dissolved in dimethyl sulfoxide (DMSO, Sigma, D8418) and diluted 1:4 in phosphate buffer saline (PBS) before the injection.
Perineuronal net density per mm^3. In each image, neurons surrounded by perineuronal nets were counted using the spot detection function of Imaris (Oxford Instruments). The total cell count was normalised to the entire image volume and data are represented as number of cells surrounded by perineuronal nets per mm^3.
Perineuronal net density per mm^3: Each data point represents the count of neurons surrounded by PNN in one image per animal (biological replicates). For all following analyses, cell densities were calculated as a percentage with the respective control set to 100%. Linear regression was used to predict cell density per mm^3 (as absolute values or as percentages compared to the respective control) by experimental condition in cases where more than two levels were involved. Then, a two-sided T-test was then used to investigate differences between experimental conditions in cases where only two levels were involved. P-values were adjusted with the “p.adjust” function and the method set to “BH”.

[2] = ketamine; cited from earlier work
[3] = tested on: parvalbumin-positive neurons, microglia, astrocytes; assay: Cell density, apoptosis and astrogliosis in S1 (parvalbumin, Iba1, Caspase3, GFAP immunostaining)
Procedure: For histological analysis, animals were shortly anesthetized with isoflurane (Zoetis) and secured to the perfusion plate. The chest was open to expose the hearth. […] The animals were initially perfused with 20 mL of phosphate-buffered saline (PBS) with heparin (100 mg/L, Sigma H0878), followed by 20 mL of 4% (w/v) paraformaldehyde (PFA, Sigma P6148) in PBS using a peristaltic pump (Behr PLP 380, speed: 25 rpm). The animals were decapitated, the retina and brain explanted, and post-fixed in 4% (w/v) PFA/PBS for 30 minutes and overnight (16h), respectively. Then, the tissues were washed in PBS and stored at 4° C. with 0.025% (w/v) sodium azide (VWR 786-299). For cryoprotection, the tissue was transferred in 30% (w/v) sucrose (Sigma 84097) in PBS and incubated overnight at 4° C. To increase antibody permeability, the brain slices were frozen over dry-ice and thawed at room temperature for three cycles.
P-values were adjusted with the “p.adjust” function and the method set to “BH”.

perineuronal net (PNN) [4] = assay: PNN-covered cells (WFA staining) in primary somatosensory cortex after repeated KXA-anaesthesia; type: in vivo, C57BL/6J mice; conditions: female compared with male
Procedure: (§1) C57BL/6J mice were intraperitoneal (i.p.) injected in the morning. Deep anaesthesia was confirmed based on the following parameters: • 1. Absence of the toe pinch reflex around 10 minutes after induction. • 2. Decrease in the respiratory frequency. • 3. No responses to external stimuli. • 4. Flaccid paralysis. • 5. Absence of whiskers movement.
(§2) Solution was always freshly prepared to avoid pH fluctuations.
(§3) For histological analysis, animals were shortly anesthetized with isoflurane (Zoetis) and secured to the perfusion plate. The chest was open to expose the hearth. […] The animals were initially perfused with 20 mL of phosphate-buffered saline (PBS) with heparin (100 mg/L, Sigma H0878), followed by 20 mL of 4% (w/v) paraformaldehyde (PFA, Sigma P6148) in PBS using a peristaltic pump (Behr PLP 380, speed: 25 rpm). The animals were decapitated, the retina and brain explanted, and post-fixed in 4% (w/v) PFA/PBS for 30 minutes and overnight (16h), respectively. […]
(§4) Perineuronal net density per mm^3. In each image, neurons surrounded by perineuronal nets were counted using the spot detection function of Imaris (Oxford Instruments). […]
(§5) Perineuronal net density per mm^3: Each data point represents the count of neurons surrounded by PNN in one image per animal (biological replicates). For all following analyses, cell densities were calculated as a percentage with the respective control set to 100%. […]

perineuronal net (PNN) [5] = assay: PNN-covered cells (WFA staining) in primary visual cortex (V1); type: in vivo, C57BL/6J mice; conditions: female compared with male
Procedure: as §1, §2, §3, §4, §5

[6] = tested on: gamma oscillations in the brain; assay: Power spectrum analysis of brain oscillations after repeated ketamine exposure; type: in vivo

purinergic receptor P2Y12, sequence (Q9CPV9 whole entry): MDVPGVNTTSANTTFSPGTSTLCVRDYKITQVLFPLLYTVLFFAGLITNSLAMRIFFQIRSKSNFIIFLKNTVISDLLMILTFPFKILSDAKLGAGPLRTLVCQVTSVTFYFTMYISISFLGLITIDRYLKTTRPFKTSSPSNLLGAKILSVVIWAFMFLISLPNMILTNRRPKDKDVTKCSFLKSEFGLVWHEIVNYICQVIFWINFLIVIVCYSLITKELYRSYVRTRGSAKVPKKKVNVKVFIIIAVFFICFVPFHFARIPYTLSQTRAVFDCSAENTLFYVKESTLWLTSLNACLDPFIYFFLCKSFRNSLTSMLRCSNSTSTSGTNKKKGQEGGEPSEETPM

Compound | loss of PNN-covered cells ([1]; 50 mg/Kg clopidogrel i.p. 5 minutes before KXA) | microglia interaction with the PNN structure ([1]; clopidogrel i.p. 5 minutes before KXA) | half-life [2] | apoptosis ([3]; repeated ketamine exposure) | parvalbumin-positive neuron density ([3]; repeated ketamine exposure) | astrogliosis (GFAP) ([3]; repeated ketamine exposure (6×KXA)) | sex difference in the action (PNN loss) of repeated exposure (perineuronal net (PNN) [4]) | sex difference in PNN recovery rate (perineuronal net (PNN) [5]) | 60 Hz frequency gamma oscillations in the brain [6]
COC(=O)[C@H](c1ccccc1Cl)N1CCc2sccc2C1 [clopidogrel] | prevented ketamine-mediated loss of PNN-covered cells | microglia showed less interaction with the PNN structure |  |  |  |  |  |  | 
CNC1(c2ccccc2Cl)CCCCC1=O (stereo not drawn) [ketamine, 2-(2-chlorophenyl)-2-(methylamino)cyclohexan-1-one] |  |  | 2 h | does not induce apoptosis | does not induce apoptosis or alteration in parvalbumin-positive neuron density | nor induce astrogliosis | accelerated in females | recovery rate was similar | increase in 60 Hz frequency gamma oscillations
